ChEMBL document CHEMBL3822409, “Synthesis and antitubercular activity of new 1,3,4-oxadiazoles bearing pyridyl and thiazolyl scaffolds” (Bioorg Med Chem Lett, 2016)
Converted amounts (≈) assume the structure as drawn.

How the values were obtained:
[1] = tested on: Mycobacterium tuberculosis variant bovis BCG; assay: Antimycobacterial activity against active stage of Mycobacterium bovis BCG ATCC 35734 measured on day 8 by nitrate reductase assay; format: functional, organism-based; conditions: ATCC 35734, 192 h
[2] = tested on: Mycobacterium tuberculosis variant bovis BCG; assay: Antimycobacterial activity against dormant stage of Mycobacterium bovis BCG ATCC 35734 measured on day 12 by nitrate reductase assay; format: functional, organism-based; conditions: ATCC 35734, 288 h

SMILES	IC50 [1]	MIC [1]	IC50 [2]	MIC [2]
Cc1nc(-c2cccnc2)sc1-c1nnc(-c2ccccc2)o1	> 30 µg/mL	> 30 µg/mL	> 30 µg/mL	> 30 µg/mL
Cc1nc(-c2cccnc2)sc1-c1nnc(-c2ccc(O)cc2)o1	> 30 µg/mL	> 30 µg/mL	> 30 µg/mL	> 30 µg/mL
Cc1nc(-c2cccnc2)sc1-c1nnc(-c2ccc([N+](=O)[O-])cc2)o1	22.5 µg/mL (≈ 61.6 µM)	> 30 µg/mL	24.9 µg/mL (≈ 68.2 µM)	> 30 µg/mL
Cc1nc(-c2cccnc2)sc1-c1nnc(-c2cccc(Cl)c2Cl)o1	> 30 µg/mL	> 30 µg/mL	> 30 µg/mL	> 30 µg/mL
COc1ccccc1-c1nnc(-c2sc(-c3cccnc3)nc2C)o1	1.46 µg/mL (≈ 4.17 µM)	2.65 µg/mL (≈ 7.56 µM)	1.8 µg/mL (≈ 5.14 µM)	3.95 µg/mL (≈ 11.3 µM)
Cc1ccc(-c2nnc(-c3sc(-c4cccnc4)nc3C)o2)cc1	14.2 µg/mL (≈ 42.6 µM)	> 30 µg/mL	15.2 µg/mL (≈ 45.5 µM)	> 30 µg/mL
Cc1nc(-c2cccnc2)sc1-c1nnc(-c2ccncc2)o1	24.7 µg/mL (≈ 76.8 µM)	40 µg/mL (≈ 125 µM)	28 µg/mL (≈ 87 µM)	42.2 µg/mL (≈ 131 µM)
Cc1ccccc1-c1nnc(-c2sc(-c3cccnc3)nc2C)o1	2.69 µg/mL (≈ 8.04 µM)	5.84 µg/mL (≈ 17.5 µM)	1.44 µg/mL (≈ 4.31 µM)	4.91 µg/mL (≈ 14.7 µM)
Cc1nc(-c2cccnc2)sc1-c1nnc(-c2ccccc2Cl)o1	2.62 µg/mL (≈ 7.38 µM)	5.16 µg/mL (≈ 14.5 µM)	1.47 µg/mL (≈ 4.14 µM)	4.77 µg/mL (≈ 13.4 µM)
Cc1cccc(-c2nnc(-c3sc(-c4cccnc4)nc3C)o2)c1	> 30 µg/mL	> 30 µg/mL	> 30 µg/mL	> 30 µg/mL
Cc1nc(-c2cccnc2)sc1-c1nnc(-c2ccc(Br)cc2)o1	> 30 µg/mL	> 30 µg/mL	> 30 µg/mL	> 30 µg/mL
Cc1nc(-c2cccnc2)sc1-c1nnc(Cc2ccccc2)o1	7.2 µg/mL (≈ 21.5 µM)	11.3 µg/mL (≈ 33.8 µM)	5.26 µg/mL (≈ 15.7 µM)	10.4 µg/mL (≈ 31 µM)
Cc1nc(-c2cccnc2)sc1-c1nnc(-c2cccnc2)o1	24.5 µg/mL (≈ 76.2 µM)	40.4 µg/mL (≈ 126 µM)	56.3 µg/mL (≈ 175 µM)	94.9 µg/mL (≈ 295 µM)
Cc1nc(-c2cccnc2)sc1-c1nnc(-c2ccccc2[N+](=O)[O-])o1	1.68 µg/mL (≈ 4.6 µM)	2.56 µg/mL (≈ 7.01 µM)	3.55 µg/mL (≈ 9.72 µM)	5.89 µg/mL (≈ 16.1 µM)
Cc1nc(-c2cccnc2)sc1-c1nnc(-c2ccc(Cl)cc2)o1	> 30 µg/mL	> 30 µg/mL	> 30 µg/mL	> 30 µg/mL
CO[C@H]1/C=C/O[C@@]2(C)Oc3c(C)c(O)c4c(O)c(c(/C=N/N5CCN(C)CC5)c(O)c4c3C2=O)NC(=O)/C(C)=C\C=C\[C@H](C)[C@H](O)[C@@H](C)[C@@H](O)[C@@H](C)[C@H](OC(C)=O)[C@@H]1C [RIFAMPIN]	0.003 µg/mL (≈ 0.00365 µM)	0.08 µg/mL (≈ 0.0972 µM)	0.0027 µg/mL (≈ 0.00328 µM)	0.05 µg/mL (≈ 0.0608 µM)
